Target: Delta-5-Desaturase (D5D) (Homo sapiens (Human), UniProt O60427)
Assay: In vitro measurement of Delta-5-Desaturase inhibitory activity using DGLA-CoA and Arachidonyl-CoA mass spectrometric assays
Format: biochemical
Conditions: membrane preparations of D5D-overexpressing HEK293 6E cells; averaged over at least two independent runs
Summary of the method: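 Membranes from D5D-overexpressing HEK293 6E cells (10 μg/mL final) in Tris pH 7.5 with MgCl2, octyl glucoside and TCEP were mixed 1:1 with substrate solution (0.01 mM DGLA, 0.25 mM NADH, 0.25 mM ATP, 0.05 mM CoA) for 1 h at ambient temperature. RapidFire SPE-MS/MS MRM; IC50 by 4-parameter fit, ≥2 runs.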

Sequence of Delta-5-Desaturase (D5D) (O60427 whole entry, species assumed): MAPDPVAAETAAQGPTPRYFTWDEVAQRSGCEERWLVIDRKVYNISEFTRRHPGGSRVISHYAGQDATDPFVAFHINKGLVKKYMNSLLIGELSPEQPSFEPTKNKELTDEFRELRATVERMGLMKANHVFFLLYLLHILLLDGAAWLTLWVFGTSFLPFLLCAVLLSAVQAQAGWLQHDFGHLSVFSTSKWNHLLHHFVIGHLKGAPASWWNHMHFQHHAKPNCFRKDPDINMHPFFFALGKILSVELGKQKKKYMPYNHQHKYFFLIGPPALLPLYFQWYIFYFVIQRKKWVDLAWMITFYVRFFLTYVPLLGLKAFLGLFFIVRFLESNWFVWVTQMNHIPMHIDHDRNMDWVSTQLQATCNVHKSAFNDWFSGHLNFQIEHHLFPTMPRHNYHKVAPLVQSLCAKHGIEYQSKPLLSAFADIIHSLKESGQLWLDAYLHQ

Row | IC50 | SMILES
1 | > 67000 nM | CN(C)Cc1ccc2nc(C(F)(F)F)c(-c3cnn(CC(F)(F)C(F)(F)F)c3)c(=O)n2c1 [Example 39-29, 7-[(dimethylamino)methyl]-3-[1-(2,2,3,3,3-pentafluoropropyl)-1H-pyrazol-4-yl]-2-(trifluoromethyl)-4H-pyrido[1,2-a]pyrimidin-4-one]
2 | 159 nM | C[S@+]([O-])c1ccn2c(=O)c(-c3cnn(CC(F)(F)C(F)(F)F)c3)c(C(F)(F)F)nc2c1 [Example 15-5, 8-((S)-methylsulfinyl)-3-(1-(2,2,3,3,3-pentafluoropropyl)-1H-pyrazol-4-yl)-2-(trifluoromethyl)-4H-pyrido[1,2-a]pyrimidin-4-one]
3 | 20.5 nM | O=c1c(-c2cnn(CC(F)(F)C(F)(F)F)c2)c(C(F)(F)F)nc2cc(CF)ccn12 [Example 13-2, 8-(fluoromethyl)-3-(1-(2,2,3,3,3-pentafluoropropyl)-1H-pyrazol-4-yl)-2-(trifluoromethyl)-4H-pyrido[1,2-a]pyrimidin-4-one]
4 | 313 nM | CNC(=O)c1ccn2c(=O)c(-c3cnn(CC(F)(F)C(F)(F)F)c3)c(C(F)(F)F)nc2c1 [Example 12-5, N-methyl-4-oxo-3-(1-(2,2,3,3,3-pentafluoropropyl)-1H-pyrazol-4-yl)-2-(trifluoromethyl)-4H-pyrido[1,2-a]pyrimidine-8-carboxamide]
5 | 61 nM | COc1cn2c(=O)c(-c3cnn(CC(F)(F)C(F)(F)F)c3)c(C(F)(F)F)nc2cn1 [Example 39-37, 7-methoxy-3-[1-(2,2,3,3,3-pentafluoropropyl)-1H-pyrazol-4-yl]-2-(trifluoromethyl)-4H-pyrazino[1,2-a]pyrimidin-4-one]
6 | 65.1 nM | Cc1nccn2c(=O)c(-c3cnn(CC(F)(F)C(F)(F)F)c3)c(C(F)(F)F)nc12 [Example 39-41, 9-methyl-3-[1-(2,2,3,3,3-pentafluoropropyl)-1H-pyrazol-4-yl]-2-(trifluoromethyl)-4H-pyrazino[1,2-a]pyrimidin-4-one]
7 | 74.3 nM | Cc1cnn2c(=O)c(-c3cnn(CC4CC4)c3)c(C(F)(F)F)nc2c1 [Example 39-51, 3-[1-(cyclopropylmethyl)-1H-pyrazol-4-yl]-8-methyl-2-(trifluoromethyl)-4H-pyrimido[1,2-b]pyridazin-4-one]
8 | 85 nM | COc1ccn2c(=O)c(-c3ccn(CC(F)(F)C(F)(F)F)n3)c(C(F)(F)F)nc2c1 [Example 39-1, 8-Methoxy-3-[1-(2,2,3,3,3-pentafluoropropyl)-1H-pyrazol-3-yl]-2-(trifluoromethyl)-4H-pyrido[1,2-a]pyrimidin-4-one]
9 | 4910 nM | COc1ccn2c(=O)c(-c3ccc(O[C@@H](C)C#N)cc3)c(C(F)(F)F)nc2n1 [Example 8-7, (2S)-2-(4-(8-methoxy-4-oxo-2-(trifluoromethyl)-4H-pyrimido[1,2-a]pyrimidin-3-yl)phenoxy)propanenitrile]
10 | 207 nM | COc1ccn2c(=O)c(-c3cnn(CC4COC4)c3)c(C(F)(F)F)nc2c1 [Example 39-54, 8-methoxy-3-{1-[(oxetan-3-yl)methyl]-1H-pyrazol-4-yl}-2-(trifluoromethyl)-4H-pyrido[1,2-a]pyrimidin-4-one]
11 | 51.8 nM | Cc1cnc2nc(C(F)(F)F)c(-c3cnn(CC(F)(F)C(F)(F)F)c3)c(=O)n2c1 [Example 40-2, 7-methyl-3-[1-(2,2,3,3,3-pentafluoropropyl)-1H-pyrazol-4-yl]-2-(trifluoromethyl)-4H-[1,3]diazino[1,2-a]pyrimidin-4-one]
12 | 2.1 nM | O=c1c(-c2cnn(CC(F)(F)C(F)(F)F)c2)c(C(F)(F)F)nc2ccc(F)cn12 [Example 39-23, 7-fluoro-3-[1-(2,2,3,3,3-pentafluoropropyl)-1H-pyrazol-4-yl]-2-(trifluoromethyl)-4H-pyrido[1,2-a]pyrimidin-4-one]
13 | 188 nM | COc1ccn2c(=O)c(-c3cnn(CC(F)(F)C(F)(F)F)c3)c(C(F)(F)F)nc2c1Cl [Example 39-3, 9-chloro-8-methoxy-3-[1-(2,2,3,3,3-pentafluoropropyl)-1H-pyrazol-4-yl]-2-(trifluoromethyl)-4H-pyrido[1,2-a]pyrimidin-4-one]
14 | 1520 nM | COCc1ccc2nc(C(F)(F)F)c(-c3cnn(CC(F)(F)C(F)(F)F)c3)c(=O)n2c1 [Example 39-24, 7-(methoxymethyl)-3-[1-(2,2,3,3,3-pentafluoropropyl)-1H-pyrazol-4-yl]-2-(trifluoromethyl)-4H-pyrido[1,2-a]pyrimidin-4-one]
15 | 16.2 nM | COc1ccn2c(=O)c(-c3ccc(OC(C)C#N)cc3)c(C(F)(F)F)nc2c1 (stereo not drawn) [Example 8-4, 2-(4-(8-methoxy-4-oxo-2-(trifluoromethyl)-4H-pyrido[1,2-a]pyrimidin-3-yl)phenoxy)propanenitrile]
16 | 1.7 nM | Cc1ccc2nc(C(F)(F)F)c(-c3cnn(CC(F)(F)C(F)(F)F)c3)c(=O)n2c1 [Example 39-19, 7-methyl-3-[1-(2,2,3,3,3-pentafluoropropyl)-1H-pyrazol-4-yl]-2-(trifluoromethyl)-4H-pyrido[1,2-a]pyrimidin-4-one]
17 | 191 nM | CC[S@+]([O-])c1ccn2c(=O)c(-c3ccc(OCC(F)(F)F)cc3)c(C(F)(F)F)nc2c1 [Example 15-9, 8-((S)-ethylsulfinyl)-3-(4-(2,2,2-trifluoroethoxy)phenyl)-2-(trifluoromethyl)-4H-pyrido[1,2-a]pyrimidin-4-one]

Further lines, the compound ahead of its results:

Row | SMILES | IC50
18 | Cn1c(=O)ccn2c(=O)c(-c3cnn(CC(F)(F)C(F)(F)F)c3)c(C(F)(F)F)nc12 [Example 67, 1-Methyl-7-[1-(2,2,3,3,3-pentafluoropropyl)-1H-pyrazol-4-yl]-8-(trifluoromethyl)-1H,2H,6H-[1,3]diazino[1,2-a]pyrimidine-2,6-dione] | 32.5 nM
19 | O=c1c(-c2cnn(CC(F)(F)C(F)(F)F)c2)c(C(F)(F)F)nc2cc(O)c(F)cn12 [Example 43, 7-Fluoro-8-hydroxy-3-[1-(2,2,3,3,3-pentafluoropropyl)-1H-pyrazol-4-yl]-2-(trifluoromethyl)-4H-pyrido[1,2-a]pyrimidin-4-one] | 742 nM
20 | [2H]C([2H])([2H])Oc1ccn2c(=O)c(-c3ccc(OCCF)cc3)c(C(F)(F)F)nc2c1 [Example 1-51, 3-(4-(2-fluoroethoxy)phenyl)-8-(methyloxy-d3)-2-(trifluoromethyl)-4H-pyrido[1,2-a]pyrimidin-4-one] | 26.6 nM
21 | CN(C(=O)F)c1ccn2c(=O)c(-c3cnn(CC(F)(F)C(F)(F)F)c3)c(C(F)(F)F)nc2c1 [Example 23, Methyl(4-oxo-3-(1-(2,2,3,3,3-pentafluoropropyl)-1H-pyrazol-4-yl)-2-(trifluoromethyl)-4H-pyrido[1,2-a]pyrimidin-8-yl)carbamyl fluoride] | 1.6 nM
22 | C=Cc1ccn2c(=O)c(-c3ccc(OCC(F)(F)F)cc3)c(C(F)(F)F)nc2c1 [Example 2-8, 8-ethenyl-3-(4-(2,2,2-trifluoroethoxy)phenyl)-2-(trifluoromethyl)-4H-pyrido[1,2-a]pyrimidin-4-one] | 25.4 nM
23 | O=c1c(-c2cnn(CC(F)(F)C(F)(F)F)c2)c(C(F)(F)F)nc2cc(OCCl)ccn12 [Example 46, 8-(Chloromethoxy)-3-[1-(2,2,3,3,3-pentafluoropropyl)-1H-pyrazol-4-yl]-2-(trifluoromethyl)-4H-pyrido[1,2-a]pyrimidin-4-one] | 16.6 nM
24 | COc1ccn2c(=O)c(-c3cnn(CCC(F)(F)F)c3)c(C(F)F)nc2c1 [Example 1-14, 2-(difluoromethyl)-8-methoxy-3-(1-(3,3,3-trifluoropropyl)-1H-pyrazol-4-yl)-4H-pyrido[1,2-a]pyrimidin-4-one] | 22.9 nM
25 | COc1cnc2nc(C(F)(F)F)c(-c3cnn(CC(F)(F)C(F)(F)F)c3)c(=O)n2c1 [Example 40-1, 7-Methoxy-3-[1-(2,2,3,3,3-pentafluoropropyl)-1H-pyrazol-4-yl]-2-(trifluoromethyl)-4H-[1,3]diazino[1,2-a]pyrimidin-4-one] | 153 nM
26 | COc1ccn2c(=O)c(-c3cc4ccccc4o3)c(C(F)(F)F)nc2c1 [Example 1-7, 3-(1-benzofuran-2-yl)-8-methoxy-2-(trifluoromethyl)-4H-pyrido[1,2-a]pyrimidin-4-one] | 85.2 nM
27 | O=c1c(-c2ccc(OCC(F)(F)F)nc2)c(C(F)(F)F)nc2ccccn12 [Example 20, 3-(6-(2,2,2-Trifluoroethoxy)-3-pyridinyl)-2-(trifluoromethyl)-4H-pyrido[1,2-a]pyrimidin-4-one] | 109 nM
28 | COc1ccn2c(=O)c(-c3cnn(CCC(F)(F)F)c3)c(C(F)(F)F)nc2n1 [Example 2-4, 8-methoxy-2-(trifluoromethyl)-3-(1-(3,3,3-trifluoropropyl)-1H-pyrazol-4-yl)-4H-pyrimido[1,2-a]pyrimidin-4-one] | 57.4 nM
29 | COc1ccn2c(=O)c(-c3cnn(-c4ccc(C(F)(F)F)cc4)c3)c(C(F)(F)F)nc2c1 [Example 1-71, 8-methoxy-2-(trifluoromethyl)-3-(1-(4-(trifluoromethyl)phenyl)-1H-pyrazol-4-yl)-4H-pyrido[1,2-a]pyrimidin-4-one] | 4880 nM
30 | COc1ccn2c(=O)c(-c3ccc(OC(F)(F)F)cc3)c(C(F)(F)F)nc2c1 [Example 1-49, 8-methoxy-3-(4-(trifluoromethoxy)phenyl)-2-(trifluoromethyl)-4H-pyrido[1,2-a]pyrimidin-4-one] | 5.4 nM
31 | COc1ccn2c(=O)c(-c3ccc(OCC#N)cc3)c(C(F)(F)F)nc2c1 [Example 21, (4-(8-Methoxy-4-oxo-2-(trifluoromethyl)-4H-pyrido[1,2-a]pyrimidin-3-yl)phenoxy)acetonitrile] | 5.8 nM
32 | COc1ccn2c(=O)c(-c3ccn(-c4ccccc4)n3)c(C(F)(F)F)nc2c1 [Example 1-3, 8-methoxy-3-(1-phenyl-1H-pyrazol-3-yl)-2-(trifluoromethyl)-4H-pyrido[1,2-a]pyrimidin-4-one] | 371 nM
33 | N#Cc1ccn2c(=O)c(-c3cnn(CC(F)(F)C(F)(F)F)c3)c(CF)nc2c1 [Example 1-86, 2-(fluoromethyl)-4-oxo-3-(1-(2,2,3,3,3-pentafluoropropyl)-1H-pyrazol-4-yl)-4H-pyrido[1,2-a]pyrimidine-8-carbonitrile] | 134 nM
